A word on the IC50: it is the concentration needed to halve the response being measured.

This note sets out measurements from ChEMBL document CHEMBL1158618, “Two new asterosaponins, archasterosides A and B, from the Vietnamese starfish Archaster typicus and their anticancer properties” (Bioorg Med Chem Lett, 2010).

Active and inactive are the calls of the source. The rule behind the calls is not given here.

The nature of data set [1]: Cytotoxicity against mouse promotion-sensitive JB6 Cl41 cells by MTS assay. The data set is classed as cell-based.
In data set [2] the test system is HeLa. Nature of the data set: Cytotoxicity against human HeLa cells by MTS assay. Type of data set: functional, cell-based. A general note: Formazan colour is commonly taken as a measure of viable cells.
The target in data set [3] is Cellular tumor antigen p53 (Mus musculus) (UniProt P02340). In words: Induction of p53-dependent transcriptional activity in mouse JB6 Cl41 cells at 12.5 uM after 6 hrs. The data set is classed as cell-based.
Data set [4] has as its target Transcription factor Jun (Mus musculus) (UniProt P05627). In words: Induction of AP1-dependent transcriptional activity in mouse JB6 Cl41 cells at 125 uM after 6 hrs. Type of data set: cell-based.
For data set [5], the system named is JB6 Cl41. In words: Induction of NF-kappaB-dependent transcriptional activity in mouse JB6 Cl41 cells at 125 uM after 6 hrs. Type of data set: cell-based.
Data set [6] can be described thus: Cytotoxicity against mouse promotion-sensitive JB6 Cl41 cells up to 50 uM by MTS assay. Type of data set: cell-based.

Cellular tumor antigen p53 (Mus musculus), sequence (P02340 whole entry): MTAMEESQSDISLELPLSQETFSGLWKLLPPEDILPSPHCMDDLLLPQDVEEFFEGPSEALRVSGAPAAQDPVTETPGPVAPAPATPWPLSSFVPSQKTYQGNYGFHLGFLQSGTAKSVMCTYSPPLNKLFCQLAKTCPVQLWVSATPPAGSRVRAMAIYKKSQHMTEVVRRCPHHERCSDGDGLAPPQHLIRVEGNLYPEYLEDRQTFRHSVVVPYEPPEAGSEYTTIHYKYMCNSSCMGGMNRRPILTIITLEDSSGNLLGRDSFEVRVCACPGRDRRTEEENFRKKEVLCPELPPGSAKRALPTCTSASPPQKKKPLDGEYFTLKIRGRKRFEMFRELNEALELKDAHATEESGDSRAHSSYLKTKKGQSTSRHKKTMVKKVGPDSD
Transcription factor Jun (Mus musculus), sequence (P05627 whole entry): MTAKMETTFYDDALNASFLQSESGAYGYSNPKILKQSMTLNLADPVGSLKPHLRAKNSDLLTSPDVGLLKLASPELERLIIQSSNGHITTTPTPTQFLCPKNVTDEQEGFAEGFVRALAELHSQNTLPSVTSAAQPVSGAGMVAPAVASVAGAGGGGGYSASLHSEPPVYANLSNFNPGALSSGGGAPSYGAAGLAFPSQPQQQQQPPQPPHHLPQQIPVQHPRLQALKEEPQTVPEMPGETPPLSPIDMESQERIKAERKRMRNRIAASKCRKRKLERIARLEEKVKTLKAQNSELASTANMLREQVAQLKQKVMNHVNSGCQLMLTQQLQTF

Turning to `CC[C@@H](C(C)C)[C@@H]1O[C@H]1[C@@](C)(O)[C@H]1[C@@H](O)C[C@H]2[C@@H]3C[C@H](O[C@@H]4O[C@H](CO)[C@@H](O)[C@H](O[C@@H]5O[C@H](C)[C@@H](O[C@@H]6O[C@H](C)[C@@H](O)[C@H](O)[C@H]6O[C@@H]6O[C@H](C)[C@H](O)[C@H](O)[C@H]6O)[C@H](O)[C@H]5O[C@@H]5O[C@H](C)[C@@H](O)[C@H](O)[C@H]5O)[C@H]4O)[C@H]4C[C@@H](OS(=O)(=O)O)CC[C@]4(C)C3=CC[C@]12C` [ARCHASTEROSIDE A], the IC50 in data set [1] turned out to be 37 µM; in data set [2], 24 µM.
Turning to `CC(C)CCC[C@@](C)(O)[C@H]1[C@@H](O)C[C@H]2[C@@H]3C[C@H](O[C@@H]4O[C@H](C)[C@@H](O)[C@H](O[C@@H]5O[C@H](C)[C@@H](O[C@@H]6O[C@H](C)[C@@H](O)[C@H](O)[C@H]6O[C@@H]6O[C@H](C)[C@H](O)[C@H](O)[C@H]6O)[C@H](O)[C@H]5O[C@@H]5O[C@H](C)[C@@H](O)[C@H](O)[C@H]5O)[C@H]4O)[C@H]4C[C@@H](OS(=O)(=O)O)CC[C@]4(C)C3=CC[C@@]21C` [ARCHASTEROSIDE B], the fold change (FC) was determined as 1.3 in data set [3] and 1.7 in data set [4]. For the same molecule, the 50% inhibitory concentration (IC50) is 18 µM in data set [1] and 14 µM in data set [2]. In data set [5], the outcome was inactive.
For the molecule `CC(C)[C@H](C)[C@@H]1O[C@H]1[C@@](C)(O)[C@H]1[C@@H](O)C[C@H]2[C@@H]3C[C@H](O[C@@H]4O[C@H](CO)[C@@H](O)[C@H](O[C@@H]5O[C@H](C)[C@@H](O[C@@H]6O[C@H](C)[C@@H](O)[C@H](O)[C@H]6O[C@@H]6O[C@H](C)[C@H](O)[C@H](O)[C@H]6O)[C@H](O)[C@H]5O[C@@H]5O[C@H](C)[C@@H](O)[C@H](O)[C@H]5O)[C@H]4O)[C@H]4C[C@@H](OS(=O)(=O)[O-])CC[C@]4(C)C3=CC[C@]12C.[Na+]` [REGULAROSIDE A], in data set [6], the Activity result is reported as “Non-toxic”. In data set [2], this molecule returned an IC50 of 110 µM.
